Assay results as given in ChEMBL document CHEMBL5523701, “Structure-based discovery of small molecule inhibitors of FKBP51-Hsp90 protein-protein interaction” (Eur J Med Chem, 2024).

What was measured:
[1] = biological target: Peptidyl-prolyl cis-trans isomerase D (Homo sapiens, UniProt Q08752); test: Inhibition of GST-tagged human CYP40 expressed in Escherichia coli BL21 (DE3) using NH2-EDASRMEEVD-COOH peptide as substrate preincubated for 15 mins followed by substrate addition measured after 15 mins by Alpha Screen assay
Chain of Peptidyl-prolyl cis-trans isomerase D (Q08752 whole entry): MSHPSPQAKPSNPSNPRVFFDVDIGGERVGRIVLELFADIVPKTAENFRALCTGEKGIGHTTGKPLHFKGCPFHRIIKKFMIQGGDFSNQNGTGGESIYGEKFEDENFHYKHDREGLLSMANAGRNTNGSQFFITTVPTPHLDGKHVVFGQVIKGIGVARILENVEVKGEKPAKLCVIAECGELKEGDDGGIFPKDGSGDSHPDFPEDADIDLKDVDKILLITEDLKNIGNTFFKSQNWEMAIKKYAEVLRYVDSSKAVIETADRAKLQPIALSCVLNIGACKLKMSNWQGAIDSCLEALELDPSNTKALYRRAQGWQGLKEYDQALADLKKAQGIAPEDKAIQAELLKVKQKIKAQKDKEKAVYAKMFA

[2] = Solubility of compound in cell culture media upto 30 uM; format: physicochemical
HEK293 = test: Induction of cell proliferation in HEK293 cells at 10 uM measured for 1 to 4 hrs by MTT assay relative to control; format: functional, Homo sapiens; details: time 1-4 hrs

Molecule Cc1sc(NC(=O)CCCC(=O)Nc2sc(C)c(C)c2C(N)=O)c(C(N)=O)c1C has an IC50 [1] of 1500 nM.
For COC(=O)c1c(NC(=O)CSc2nnc(-c3ccco3)c(-c3ccco3)n2)sc(C)c1C, the solubility [2] was “Soluble” and the Activity (HEK293) was 10%.
